Our source for the Inhibition values is ChEMBL document CHEMBL3137356, “MMV Box Cryptosporidium parvum screening set”.

The subject of the test is Cryptosporidium parvum. Briefly: MMV: Cryptosporidium parvum oocysts (Iowa Strain) were prepared for use by treatment with 10 mM HCl (37 degrees C, 10 min) followed by 2 mM sodium taurocholate in phosphate-buffered saline (PBS) with Ca2+ and Mg2+ (16 degrees C, 10 min) in order to stimulate excystation. The high-throughput screen was carried out by inoculating >90% confluent human ileocecal adenocarcinoma (HCT-8) cells (ATCC) with ~5.5 x 10^3 primed oocysts per well. Experimental compounds or DMSO (vehicle) were added three hours after infection, and cells were incubated for 48 hours. In kind it is functional.

For the compound `O=C(Nc1ccc(C23CC4CC(CC(c5ccccc5)(C4)C2)C3)cc1)c1cccs1`, the Inhibition is listed as -2.299%.

With `COC(=O)c1ccc(Cl)c2c1C1C=CCC1C(c1cccc3ccccc13)N2` (centres undefined), the Inhibition was -26.02%.

As to `COc1cccc(Cn2c(Oc3ccccc3)nc3c2c(=O)n(C)c(=O)n3C)c1`, the Inhibition is reported as -39.36%.

Turning to `CCOC(=O)C1=C(C)N=c2sc(=Cc3cc(Cl)ccc3O)c(=O)n2C1c1ccc(OC)cc1` (centres undefined), the Inhibition is listed as -31.98%.

Consider `O=C1c2ccc3c4c(ccc(c24)C(=O)N1CCCCO)C(=O)N(CCCCO)C3=O`, for which the Inhibition is on record as 79.86%.

As for `CCOc1ccc(CCNC(=O)c2cccs2)cc1OCC`, the Inhibition amounted to 10.2%.

Turning to `Cc1cc(N2CCN(C3CCCC3)CC2)n2c(nc3ccccc32)c1C#N`, the Inhibition is given as -41.28%.

For the compound `COc1ccc(CCn2c(=N)c(C(=O)NCc3cccnc3)cc3c(=O)n4cccc(C)c4nc32)cc1`, the Inhibition is listed as 0.9407%.

On to `CCCCN(CCCC)S(=O)(=O)c1ccc(NC(=O)c2ccco2)cc1`, for which the Inhibition is on record as -29.51%.

As for `COc1cccc(Nc2nc(N)c3ccccc3n2)c1.Cl`, the Inhibition came to 27.99%.

Turning to `CCN(CC)CCn1c(=N)n(CC(O)c2ccc(Cl)c(Cl)c2)c2ccccc21.Cl` (centres undefined), the Inhibition is given as 14.91%.

Take `CC(C)(C)CC(C)(C)NCC(O)COc1ccc(Cl)cc1Cl` (centres undefined): the Inhibition amounted to 15.77%.

With `CCCc1cc(O)c2c3c(c(=O)oc2c1)CN(C)CC3`, the Inhibition is listed as -49.5%.

Take `CCN1CCN(c2cc(C)c3cc(NC(=O)c4ccc(OC)c(OC)c4)ccc3n2)CC1`: the Inhibition is reported as -21.17%.

In the case of `CCN(CC)CCNc1ccnc2cc3ccccc3cc12.O=P(O)(O)O`, the Inhibition amounted to 3.908%.

Regarding `CCCCC(O)(c1ccc(Cl)cc1)C(CN1CCOCC1)c1ccc(Cl)cc1.Cl` (centres undefined), the Inhibition was 17.88%.

`CCOC(=O)c1cn(CC)c2cc(N(C)CCc3ccc(OC)c(OC)c3)c(F)cc2c1=O`: the Inhibition worked out at 43.56%.

`CCn1nc(-c2ccc(C(=O)OC)cc2)nc2c(=O)n(C)c(=O)nc1-2`: the Inhibition is -16.23%.

For `COc1ccc(C(C)=O)cc1N1C(=O)C2C(C1=O)C1(c3ccccc3)C(=O)C2(c2ccccc2)C(c2ccc(C)cc2)=C1c1ccc(C)cc1` (centres undefined), the Inhibition is listed as 5.543%.

For `CCC(c1ccccc1)c1nn2c(-c3cccs3)nnc2s1` (centres undefined), the Inhibition was -11.07%.

Turning to `CCOC(=O)c1cnc2ccc(CC)cc2c1O`, the Inhibition is listed as -16.47%.

In the case of `COc1ccc2c(c1)OC(O)(C(F)(F)C(F)(F)F)CC2=O` (centres undefined), the Inhibition is recorded as 33.72%.

With `Cc1cc(Nc2ccc(C)c(Cl)c2)n2nc(C(F)(F)F)nc2n1`, the Inhibition turned out to be 4.308%.

`CCOc1cc2c(cc1OCC)C(c1cc(Cl)ccc1O)NCC2` (centres undefined): the Inhibition is -2.297%.

As to `Clc1ccc2c(N3CCCC3)ccnc2c1`, the Inhibition is -28.37%.

Take `CCOc1cc(CNC(C)C(O)c2ccccc2)cc(Cl)c1OCC` (centres undefined): the Inhibition came out at 29.95%.

On to `CCOC(=O)c1cnc2ccc(OC)cc2c1NCc1ccccc1`, for which the Inhibition turned out to be 13.76%.

With `c1ccc(Cn2c(N=Nc3c(Nc4ccccc4)ccc4ccccc34)nc3ccccc32)cc1`, the Inhibition came to 2.817%.

Take `CN(C)c1ccc(N2C(N)=NC(N)=NC2(C)C)cc1`: the Inhibition is -33.57%.

As to `COc1ccc2nc(C)cc(Nc3ccc(Cl)cc3)c2c1`, the Inhibition is -41.72%.

Regarding `N#Cc1nc(Cc2cccc3ccccc23)oc1N1CCN(C(c2ccccc2)c2ccccc2)CC1`, the Inhibition was -4.219%.

For the compound `CCOc1c(Cl)cc(CNCC(O)c2ccccc2)cc1OC` (centres undefined), the Inhibition was -11.22%.

Consider `Cc1cc(Nc2ccc(OCc3ccccc3)cc2)nc2cc(O)ccc12`, for which the Inhibition is recorded as -18.86%.

On to `O=C(NCCCN1CCC(N2CCCCC2)CC1)C1=Cc2cc(Br)ccc2OC1`, for which the Inhibition is reported as -11.72%.

As to `CC(C)OCc1cc(CN2CCN(c3cccc(Cl)c3)CC2)c(O)c2ncccc12`, the Inhibition amounted to 54.97%.

For `CCCCOc1ccc(C(=O)Nc2cc(C)on2)cc1`, the Inhibition is reported as -8.82%.

As to `CCOc1ccc(Nc2ccnc3cc(Cl)ccc23)cc1`, the Inhibition is reported as -43.83%.

Turning to `COc1cc2cc(C(=O)Nc3ccccc3)c(N)nc2cc1OC`, the Inhibition was -19.13%.

In the case of `O=C(Nc1ccc(Br)cc1)Nc1cccc(Cl)c1`, the Inhibition is on record as -51.26%.

In the case of `C=CCc1c(C)nc2ccccc2c1O`, the Inhibition was -10.8%.

In the case of `CC1CC2=C(CC1CNCCCN(C)C)C(C)(C)CCC2` (centres undefined), the Inhibition came out at 42.26%.

As to `CCc1ccc(Nc2cc(C)nc3nc(C)nn23)cc1`, the Inhibition was -3.889%.

Regarding `CCOC(=O)c1c[nH]c2c(CC)cccc2c1=O`, the Inhibition worked out at 0.8782%.

For the compound `CCCN(CCC)CC(O)COc1ccccc1C(=O)Nc1ccccc1` (centres undefined), the Inhibition worked out at 46.62%.

As for `COc1ccccc1CNC(=O)C1c2ccccc2C(=O)N(CC(C)C)C1c1cccs1` (centres undefined), the Inhibition stood at 58.94%.

With `O=c1nc(C=Cc2ccc(Cl)cc2)oc2ccccc12`, the Inhibition was 84.37%.

For `OC1CCCCC1C1(NC(=S)Nc2ccccc2)CCCCC1` (centres undefined), the Inhibition is 3.232%.

As to `Cc1[nH]c(-c2ccc(F)cc2)cc1C(=O)NC1CCN(Cc2ccccc2)CC1`, the Inhibition was -23.5%.

On to `COc1ccc(C=C2SC(=N)N(c3ccccc3OC)C2=O)cc1`, for which the Inhibition came out at 10.76%.

For the compound `COc1ccc(C2C(C(=O)Nc3cccc(OC)c3)c3ccccc3C(=O)N2C2CCCCC2)cc1` (centres undefined), the Inhibition was -43.91%.

Consider `O=C(Nc1nc(-c2ccccn2)cs1)c1ccccc1Br`, for which the Inhibition came to 62.15%.

As for `CCOc1ccc(Nc2c3ccccc3nc3ccccc23)cc1.Cl`, the Inhibition amounted to 26.95%.

Regarding `CCOc1ccc(/C=C/c2nc(=O)c3ccccc3o2)cc1`, the Inhibition was -0.2946%.

In the case of `O=C1CC(O)(C(F)(F)C(F)(F)F)Oc2ccccc21` (centres undefined), the Inhibition came to 26.51%.

As to `CCOc1cccc(C(=O)Nc2ccc(-c3nc4ccccc4[nH]3)cc2)c1`, the Inhibition is -2.618%.

Take `Cc1ccc(C(=O)c2oc3ccc4c(C)cc(=O)oc4c3c2C)cc1`: the Inhibition turned out to be 28.07%.

For `COc1ccc(CNC2CCN(c3ccc(NC(=O)c4cccc(Cl)c4)cc3)CC2)cc1OC`, the Inhibition is -38.21%.

With `OC(CNCC1CCCO1)Cn1c2ccc(Cl)cc2c2cc(Cl)ccc21` (centres undefined), the Inhibition was -33.95%.

Take `COc1ccc(N2CCN(C(CNC(=O)CC(C)(C)C)c3ccc4c(c3)OCO4)CC2)cc1` (centres undefined): the Inhibition is -20.28%.

As to `COc1cc(-c2nc(-c3ccccc3)c(-c3ccccc3)[nH]2)cc(OC)c1O`, the Inhibition is reported as -1.324%.

For `Oc1ccc2ccccc2c1CNc1nc2ccccc2[nH]1`, the Inhibition is -48.76%.

Turning to `c1ccc2c(NCCc3c[nH]c4ccccc34)c3ccccc3nc2c1`, the Inhibition is 19.05%.

`COC(=O)c1ccc(C2C3=C(O)CC(c4ccc(F)cc4)CC3=Nc3ccccc3N2C(=O)c2ccccc2)cc1` (centres undefined): the Inhibition is -18.81%.

Consider `Br.CCn1c2c(c(=N)c3c1CCC3)CCCC2`, for which the Inhibition was 9.729%.

For `CCCCCCc1cc2cc(-c3nc4ccccc4[nH]3)c(=Nc3ccccc3C)oc2cc1O`, the Inhibition is recorded as -3.461%.

In the case of `FC(F)(F)c1cccc(Nc2nc3ccccc3nc2Nc2cccc(C(F)(F)F)c2)c1`, the Inhibition is reported as -14.38%.

Regarding `FC(F)(F)c1cccc(Nc2nc(-c3ccccc3)nc3ncccc23)c1`, the Inhibition is on record as -10.43%.

Consider `COc1ccc(CCN2CCC(CN(C)Cc3cnn(-c4ccccc4)c3)CC2)cc1`, for which the Inhibition is -0.7856%.

On to `CC1CCCCN1CCCNC(=O)c1ccc2c(c1)sc1nc(-c3ccc(F)cc3)cn12` (centres undefined), for which the Inhibition is given as 7.741%.

What is called Inhibition is the change of the read-out against control, counted positive when it falls.
